Test results reported in article PMC6797515, “Effects of Bakuchiol on chondrocyte proliferation via the PI3K‐Akt and ERK1/2 pathways mediated by the estrogen receptor for promotion of the regeneration of knee articular cartilage defects” (Cell Proliferation, 2019).

Columns and labels:
ERK1/2 = experiment: Western blotting for phosphorylated/total ERK1/2; type: cell-based, rat
Experimental: (§1) Western blotting analysis was performed as described previously. After separation using SDS‐PAGE then transfer to PVDF membranes, the target proteins were detected after incubating with primary antibodies for CDK1 (Abcam: ab18, 1:1000), E2F1 (Abcam: ab179445, 1:1000), phosphorylated Akt (CST: 9271, 1:1000), Akt (CST: 9272, 1:1000), phosphorylated ERK1/2 (Abcam: ab201015, 1:1000), ERK1/2 (Abcam: ab36991, 1:1000) and ERα (Santa Cruz: sc‐8005, 1:200). The membranes were then incubated with the corresponding secondary antibody at 37°C for 1 hour Finally, the immunoreactive bands were developed using SuperSignal West Femto Maximum sensitivity substrate (Thermo Fisher Scientific), and the images analysed using Quantity One Software (Bio‐Rad). The PI3K‐Akt and ERK signalling pathways were involved in the regulation of cell proliferation by BAK. Two methods of analysis were conducted to verify this. Firstly, the cells were treated with BAK or BAK plus the Akt or ERK inhibitors PI‐103 and SCH772984, respectively. […] Finally, the protein expression levels of CDK1 and phosphorylated and total Akt (p/t‐Akt) were detected using Western blotting so as to confirm the involvement of the ERα/PI3K‐Akt/ERK axis signalling pathways in cell proliferation by BAK stimulation.

CDK1 [1] = experiment: Western blotting for CDK1 protein; type: cell-based, rat; settings: for CDK1 protein levels in chondrocytes: inhibitor 1 µmol/L added to 10 µmol/L BAK
Experimental: Western blotting analysis was performed as described previously. After separation using SDS‐PAGE then transfer to PVDF membranes, the target proteins were detected after incubating with primary antibodies for CDK1 (Abcam: ab18, 1:1000), E2F1 (Abcam: ab179445, 1:1000), phosphorylated Akt (CST: 9271, 1:1000), Akt (CST: 9272, 1:1000), phosphorylated ERK1/2 (Abcam: ab201015, 1:1000), ERK1/2 (Abcam: ab36991, 1:1000) and ERα (Santa Cruz: sc‐8005, 1:200). The membranes were then incubated with the corresponding secondary antibody at 37°C for 1 hour Finally, the immunoreactive bands were developed using SuperSignal West Femto Maximum sensitivity substrate (Thermo Fisher Scientific), and the images analysed using Quantity One Software (Bio‐Rad). The PI3K‐Akt and ERK signalling pathways were involved in the regulation of cell proliferation by BAK. Two methods of analysis were conducted to verify this. Firstly, the cells were treated with BAK or BAK plus the Akt or ERK inhibitors PI‐103 and SCH772984, respectively. Following culture of the cells, Western blotting was used to ascertain if Akt or ERK1/2 were phosphorylated and to verify the association between BAK and the activation of the Akt and ERK1/2 pathways. Secondly, ERα siRNA (ERα si‐R) was used to knockdown estrogen receptor in the target cells, which were then further cultured for 48 hours with BAK. Meanwhile, the non‐treatment group was used as the control. Finally, the protein expression levels of CDK1 and phosphorylated and total Akt (p/t‐Akt) were detected using Western blotting so as to confirm the involvement of the ERα/PI3K‐Akt/ERK axis signalling pathways in cell proliferation by BAK stimulation.

Akt = experiment: Western blotting for phosphorylated/total Akt; type: cell-based, rat
Experimental: as §1

CDK1 [2] = experiment: qRT-PCR gene expression of CDK1; type: cell-based, rat; settings: 10 µmol/L, 48 hours
Source text: (§2) Cells were harvested using Trizol reagent (Invitrogen), followed by RNA isolation. Each sample was reverse transcribed to cDNA using a RevertAid First Strand cDNA Synthesis Kit (Thermo Fisher Scientific). The reverse transcription product was then used as a template to perform real‐time polymerase chain reaction (PCR) on a StepOne Plus thermal cycler (Applied Biosystems) using PowerUp™ SYBR™ Green Master Mix (Applied Biosystems), following the manufacturer's guidelines. The primers for CDK1 (F: 5′‐[…]‐3′; R: 5′‐[…]‐3′), E2F1 (F: 5′‐[…]‐3′; 5′‐[…]‐3′), MKI67 (F: 5′‐[…]‐3′; R: 5′‐[…]‐3′) were synthesized by Invitrogen. The final data were analysed by the 2^−ΔΔ ^C ^t method.

MKI67 [3] = experiment: qRT-PCR gene expression of MKI67; type: cell-based, rat; settings: 10 µmol/L, 48 hours
Source text: as §2

estrogen receptor = tested on: estrogen receptor; set-up: method as in earlier work; settings: ref 11 (Lim et al); cited from earlier work
rat chondrocytes = experiment: CCK8 cell viability / cytotoxicity assay; type: cell-based
Experimental: Rat chondrocytes were isolated using a method adapted from a previous study.9 Briefly, articular cartilage was retrieved from the knees of healthy Sprague-Dawley rats (male, n = 5, weight: 150 g). The cartilage was minced, and pieces digested with 2 mg/mL of collagenase type II (Gibco) for 2 hours. After removal of undigested tissue, the cells were cultured in DMEM/F12 (1:1) supplemented with 10% FBS. Passage 2-3 (P2-3) cells were used in the experimental studies. The bakuchiol was purchased from Selleck ([…]). Animal experiment protocol was reviewed and approved by the Institutional Review Board (IRB) of Chongqing University. Cell viability in response to BAK was evaluated using a cell counting kit-8 (CCK8) assay which was also utilized to assess cell viability. Cells were seeded at a density of 1 × 10^4 cells/well in a 24-well plate and the cytotoxicity of BAK tested using concentrations of 1 to 100 μmol/L for 3 days. The cells were then treated with 10 μmol/L BAK for 7 days. The cells were then washed with PBS and incubated in serum-free medium containing 10% CCK8 reagent for 2-3 hours at 37°C in an atmosphere containing 5% CO2. Aliquots were pipetted into a 96-well plate and absorbance at 490 nm measured using a plate reader (Bio-Rad).

MKI67 [4] = experiment: Immunofluorescent staining of MKI67 in chondrocytes; type: cell-based, rat; settings: 10 µmol/L, relative to control
E2F1 [5] = experiment: Western blotting for E2F1 protein; type: cell-based, rat; settings: BAK 1 to 10 µmol/L for 3 d
Experimental: Western blotting analysis was performed as described previously. After separation using SDS‐PAGE then transfer to PVDF membranes, the target proteins were detected after incubating with primary antibodies for CDK1 (Abcam: ab18, 1:1000), E2F1 (Abcam: ab179445, 1:1000), phosphorylated Akt (CST: 9271, 1:1000), Akt (CST: 9272, 1:1000), phosphorylated ERK1/2 (Abcam: ab201015, 1:1000), ERK1/2 (Abcam: ab36991, 1:1000) and ERα (Santa Cruz: sc‐8005, 1:200). The membranes were then incubated with the corresponding secondary antibody at 37°C for 1 hour Finally, the immunoreactive bands were developed using SuperSignal West Femto Maximum sensitivity substrate (Thermo Fisher Scientific), and the images analysed using Quantity One Software (Bio‐Rad).

chondrocytes = experiment: EdU DNA proliferation assay; type: cell-based, rat; settings: 10 and 20 µmol/L, 24 and 48 hours
Experimental: Chondrocyte proliferation was quantified using an ethynyl deoxyuridine (EdU) DNA in vitro proliferation detection kit (Guangzhou RiboBio) using flow cytometry, in accordance with the manufacturer's instructions.14 Images of cells were captured by light with microscopy using Image‐Pro Plus 6.0 software (Media Cybernetics). The number of EdU‐labelled cells was calculated from fields randomly selected in each well. Numbers of cells in each phase of the cell cycle were calculated using a BD FACS Calibur Flow Cytometer at a 488 nm excitation wavelength.

[6] = tested on: knee articular cartilage defect; experiment: Rat knee articular cartilage defect model, histological evaluation; type: in vivo, Sprague‐Dawley (SD) rats; settings: Matrigel with bakuchiol 100 µmol/L implanted locally
Experimental: (§3) Animal experiments were conducted in accordance with protocols approved by the Chongqing University Animal Care and Use Committee. For the cartilage injury model, a 0.5‐mm‐deep thickness defect was created through the articular cartilage and subchondral bone of the patellar groove of Sprague‐Dawley (SD) rats (200‐250 g) using a micro‐electrical drill. Matrigel mixed with bakuchiol (100 µmol/L) was implanted locally to fill the cartilage defect. Articular cartilage samples were harvested after 1 and 2 weeks post‐implantation for macroscopic and histological evaluation, with analysis by micro‐CT. The harvested samples were embedded in paraffin, sectioned for 10 μm thickness and then stained with haematoxylin and eosin (H&E), Safranin‐O green and Alcian blue. The sections were scored histologically in accordance with previous studies.9, 17, 18 The relative area of each defect (Figure 6: area within the dashed line) in the different groups was measured using Image J. The relative content of cartilage matrix was ascertained from the degree of Safranin staining (Red area) and GAG content by Alcian blue staining (Positive blue area). All morphological measurements were performed using Image J. The mean histological scores for each group were statistically analysed, with t tests performed between the BAK‐treated group and control. In addition, the histological immunofluorescent staining for Ki67, p‐Akt, and p‐ERK was performed to verify the in vivo mechanisms of BAK on cell proliferation.

Ki67, p‐ERK and p‐Akt = experiment: Immunofluorescent staining of Ki67, p-Akt, p-ERK at the defect site; type: in vivo, Sprague‐Dawley (SD) rats; settings: 1 and 2 weeks post-injury
Experimental: as §3, with “In addition, the histological immunofluorescent staining for Ki67, p‐Akt, and p‐ERK was performed to verify the in vivo mechanisms of BAK on cell proliferation.” left out

E2F1 [7] = experiment: qRT-PCR gene expression of E2F1; type: cell-based, rat; settings: 10 µmol/L, 48 hours
Source text: as §2

O=C(Nc1ccc2[nH]nc(-c3ccncc3)c2c1)[C@@H]1CCN(CC(=O)N2CCN(c3ccc(-c4ncccn4)cc3)CC2)C1 [SCH772984]
p/t-ERK1/2 ratio in chondrocytes (ERK1/2; 1 µmol/L SCH772984 added to 10 µmol/L BAK): reduced | CDK1 protein levels in chondrocytes (CDK1 [1]): reduced

Oc1cccc(-c2nc(N3CCOCC3)c3oc4ncccc4c3n2)c1 [PI‐103]
CDK1 protein levels in chondrocytes (CDK1 [1]): reduced | p/t-Akt ratio in chondrocytes (Akt; 1 µmol/L PI-103 added to 10 µmol/L BAK): reduced

C=C[C@@](C)(/C=C/c1ccc(O)cc1)CCC=C(C)C [BAK, bakuchiol]
mRNA level of CDK1 (CDK1 [2]): significantly up‐regulated | mRNA level of MKI67 (MKI67 [3]): significantly up‐regulated | estrogen receptor-binding affinity (estrogen receptor): high estrogen receptor‐binding affinity | cell viability vs control (rat chondrocytes; 10 µmol/L, 7 days of culture): promoted cell viability | toxicity in the cells (rat chondrocytes; 100 µmol/L): clear toxicity | cytotoxic effects on chondrocytes (rat chondrocytes; 1 to 100 µmol/L, after 24 hours): no cytotoxic effects | proliferation of chondrocytes vs control (rat chondrocytes; 5, 10 and 20 µmol/L, control 0.1% DMSO): increased proliferation significantly | EC50 (rat chondrocytes; Rattus norvegicus, Chondrocyte, CCK8, chondrocytes, 24 h, Figure 1A, read-out: EC50 of BAK): 8.9 µM | IC50 (rat chondrocytes; Rattus norvegicus, Chondrocyte, CCK8, chondrocytes, Figure S1, read-out: IC50 (toxicity in the cells)): 48.5 µM | BAK concentration in the medium with significant cytotoxicity (rat chondrocytes; chondrocytes): > 20 µmol/L | MKI67 protein synthesis (immunofluorescent staining) (MKI67 [4]): clearly promoted MKI67 protein synthesis | E2F1 protein (translation level) (E2F1 [5]): up‐regulated E2F1 at the translation level | ratio of phosphorylated/total ERK1/2 (p/t-ERK1/2) (ERK1/2; 10 µmol/L BAK): improved the ratios | CDK1 protein synthesis (CDK1 [1]; 10 µmol/L BAK, Figure 4): significantly stimulated CDK1 protein synthesis | CDK1 protein synthesis (CDK1 [1]; BAK 1 to 10 µmol/L for 3 d): stimulated CDK1 protein synthesis | cell proliferation (EdU staining) (chondrocytes): significantly promoted cell proliferation | ratio of phosphorylated/total Akt (p/t-Akt) (Akt; 10 µmol/L BAK): improved the ratios | histological score of the defects ([6]; 1 week): 3.60 ± 0.54 | histological score of the defects ([6]; 2 weeks): 5.40 ± 0.55 | content of GAG vs control ([6]; Alcian blue): clearly different | expression of Ki67, p-ERK and p-Akt in vivo (Ki67, p‐ERK and p‐Akt): promoted the expression | mRNA level of E2F1 (E2F1 [7]): significantly up‐regulated
